Source: patent publication US20120135995A1, “FUNGICIDAL DIPHENYL-SUBSTITUTED PYRIDAZINES” (E.I. Dupont de Nemours and Company, priority 2009, published 2012)

Experiments:
Assay type in all cases: in vivo
Erysiphe graminis = experiment: Test F: wheat seedlings sprayed, next day inoculated with Erysiphe graminis (wheat powdery mildew), visual disease rating; settings: sprayed day before inoculation; for Test F rating (disease control): 200 ppm test suspension
Source text: (§1) General protocol for preparing test suspensions for Tests A-F: the test compounds were first dissolved in acetone in an amount equal to 3% of the final volume and then suspended at the desired concentration (in ppm) in acetone and purified water (50/50 mix) containing 250 ppm of the surfactant Trem® 014 (polyhydric alcohol esters). The resulting test suspensions were then used in Tests A-F. Spraying a 200 ppm test suspension to the point of run-off on the test plants was the equivalent of a rate of 500 g/ha. An asterisk “*” next to the rating value indicates a 40 ppm test suspension.
The test suspension was sprayed to the point of run-off on wheat seedlings. The following day the seedlings were inoculated with a spore dust of Erysiphe graminis, (the causal agent of wheat powdery mildew) and incubated in a growth chamber at 20° C. for 8 days, after which time visual disease ratings were made.
(§2) Results for Tests A-F are given in Table A. In the Table, a rating of 100 indicates 100% disease control and a rating of 0 indicates no disease control (relative to the controls). A dash (-) indicates no test results. All results are for 200 ppm except where followed by “*”, which indicates 40 ppm.

Alternaria solani = experiment: Test B: tomato seedlings sprayed, next day inoculated with Alternaria solani (tomato early blight), visual disease rating; settings: sprayed day before inoculation; for Test B rating (disease control): 200 ppm test suspension
Source text: as §1
(§3) The test suspension was sprayed to the point of run-off on tomato seedlings. The following day the seedlings were inoculated with a spore suspension of Alternaria solani (the causal agent of tomato early blight) and incubated in a saturated atmosphere at 27° C. for 48 h, and then moved to a growth chamber at 20° C. for 5 days, after which time visual disease ratings were made.
as §2

Septoria nodorum = experiment: Test C: wheat seedlings sprayed, next day inoculated with Septoria nodorum (wheat glume blotch), visual disease rating; settings: sprayed day before inoculation; for Test C rating (disease control): 200 ppm test suspension
Source text: as §1
as §3, with “wheat” for “tomato”, “Septoria nodorum” for “Alternaria solani”, “wheat glume blotch)” for “tomato early blight)”, “24°” for “27°”, “6” for “5”
as §2

[1] = test system: Puccinia recondita f. sp. tritici; experiment: Test E1: wheat seedlings inoculated with Puccinia recondita f. sp. tritici (wheat leaf rust), sprayed afterwards, visual disease rating; settings: sprayed after inoculation; for Test E1 rating (disease control): 200 ppm test suspension
Source text: as §1
Wheat seedlings were inoculated with a spore suspension of Puccinia recondita f. sp. tritici (the causal agent of wheat leaf rust) and incubated in a saturated atmosphere at 20° C. for 24 h, and then moved to a growth chamber at 20° C. for 2 days. At the end of this time the test suspension was sprayed to the point of run-off on the wheat seedlings, and then the seedlings were moved to a growth chamber at 20° C. for 6 days, after which time visual disease ratings were made.
as §2

[2] = test system: Puccinia recondita f. sp. tritici; experiment: Test E2: wheat seedlings sprayed, next day inoculated with Puccinia recondita f. sp. tritici (wheat leaf rust), visual disease rating; settings: sprayed day before inoculation; for Test E2 rating (disease control): 200 ppm test suspension
Source text: as §1
The test suspension was sprayed to the point of run-off on wheat seedlings. The following day the seedlings were inoculated with a spore suspension of Puccinia recondita f. sp. tritici (the causal agent of wheat leaf rust) and incubated in a saturated atmosphere at 20° C. for 24 h, and then moved to a growth chamber at 20° C. for 7 days, after which time visual disease ratings were made.
as §2

Botrytis cinerea = experiment: Test A: tomato seedlings sprayed, next day inoculated with Botrytis cinerea (tomato Botrytis), visual disease rating; settings: sprayed day before inoculation; for Test A rating (disease control): 200 ppm test suspension
Source text: as §1
as §3, with “Botrytis cinerea” for “Alternaria solani”, “Botrytis)” for “early blight)”, “in” for “in a”, “20°” for “27°”, “24°” for “20°”, “3” for “5”
as §2

Septoria tritici = experiment: Test D: wheat seedlings sprayed, next day inoculated with Septoria tritici (wheat leaf blotch), visual disease rating; settings: sprayed day before inoculation; for Test D rating (disease control): 200 ppm test suspension
Source text: as §1
The test suspension was sprayed to the point of run-off on wheat seedlings. The following day the seedlings were inoculated with a spore suspension of Septoria tritici (the causal agent of wheat leaf blotch) and incubated in saturated atmosphere at 24° C. for 48 h, and then moved to a growth chamber at 20° C. for 19 days, after which time visual disease ratings were made.
as §2

[3] = Puccinia recondita, 40 ppm test suspension (*)

COc1cc(OC)cc(-c2c(C)nnc(F)c2-c2c(F)cccc2Cl)c1 [Compound 47] was tested, and the “Test F rating (disease control)” value (Erysiphe graminis) was 99%, the “Test B rating (disease control)” value (Alternaria solani) was 100% and the “Test C rating (disease control)” value (Septoria nodorum) was 99%. For the same molecule, the “Test E1 rating (disease control)” value [1] was 100% and the “Test E2 rating (disease control)” value [2] was 99%.
For COc1cc(OC)c(Cl)c(-c2c(C)nnc(F)c2-c2ccc(F)cc2F)c1 [Compound 51], the “Test F rating (disease control)” value (Erysiphe graminis) was 99%, the “Test B rating (disease control)” value (Alternaria solani) was 100% and the “Test A rating (disease control)” value (Botrytis cinerea) was 99%. The “Test C rating (disease control)” value (Septoria nodorum) was 0%, the “Test E1 rating (disease control)” value [1] was 0% and the “Test E2 rating (disease control)” value [2] was 100%.
In the case of COc1cc(-c2c(C)nnc(C)c2-c2ccc(F)cc2F)cc(OC)c1Cl [Compound 50], the “Test F rating (disease control)” value (Erysiphe graminis) is reported as 100%, the “Test B rating (disease control)” value (Alternaria solani) is reported as 100% and the “Test C rating (disease control)” value (Septoria nodorum) is reported as 100%. The “Test E1 rating (disease control)” value [1] was 100% and the “Test E2 rating (disease control)” value [2] was 100%.
In the case of COc1cc(OC)cc(-c2c(C)nnc(C)c2-c2c(F)cccc2Cl)c1 [Compound 39], the “Test D rating (disease control)” value (Septoria tritici) is reported as 100%, the “Test F rating (disease control)” value (Erysiphe graminis) is reported as 98% and the “Test B rating (disease control)” value (Alternaria solani) is reported as 99%. The “Test A rating (disease control)” value (Botrytis cinerea) was 100%, the “Test C rating (disease control)” value (Septoria nodorum) was 99% and the “Test E1 rating (disease control)” value [1] was 99%. The “Test E2 rating (disease control)” value [2] was 100%.
COc1cc(OC)cc(-c2c(C(C)=O)nnc(C)c2-c2c(F)cc(F)cc2F)c1 [Compound 20, 1-[4-(3,5-dimethoxyphenyl)-6-methyl-5-(2,4,6-trifluorophenyl)-3-pyridazinyl]ethanone] gave a pest or weed control at 40 ppm (Septoria tritici; Zymoseptoria tritici, 40 ppm test suspension (*)) of 96%, a pest or weed control at 40 ppm (Erysiphe graminis; Blumeria graminis, 40 ppm test suspension (*)) of 98% and a pest or weed control at 40 ppm (Alternaria solani; Alternaria solani, 40 ppm test suspension (*)) of 26%. The pest or weed control at 40 ppm (Botrytis cinerea; Botrytis cinerea, 40 ppm test suspension (*)) was 99%, the pest or weed control at 40 ppm (Septoria nodorum; Parastagonospora nodorum, 40 ppm test suspension (*)) was 0% and the pest or weed control at 40 ppm [1, 3] was 41%. For the same molecule, the pest or weed control at 40 ppm [2, 3] was 99%.
COc1cc(OC)cc(-c2c(C)nnc(Cl)c2-c2ccc(F)cc2Cl)c1 [Compound 48] was tested, and the “Test F rating (disease control)” value (Erysiphe graminis) was 97%, the “Test B rating (disease control)” value (Alternaria solani) was 100% and the “Test C rating (disease control)” value (Septoria nodorum) was 0%. The “Test E1 rating (disease control)” value [1] was 0% and the “Test E2 rating (disease control)” value [2] was 99%.
COc1cc(OC)cc(-c2c(C)nnc(Cl)c2-c2c(F)cccc2Cl)c1 [Compound 38] was tested, and the “Test D rating (disease control)” value (Septoria tritici) was 100%, the “Test F rating (disease control)” value (Erysiphe graminis) was 100% and the “Test B rating (disease control)” value (Alternaria solani) was 99%. For the same molecule, the “Test A rating (disease control)” value (Botrytis cinerea) was 100%, the “Test C rating (disease control)” value (Septoria nodorum) was 99% and the “Test E1 rating (disease control)” value [1] was 85%. For the same molecule, the “Test E2 rating (disease control)” value [2] was 100%.
In the case of COc1cc(OC)c(Cl)c(-c2c(C)nnc(C)c2-c2c(F)cccc2Cl)c1 [Compound 43], the “Test D rating (disease control)” value (Septoria tritici) is reported as 100%, the “Test F rating (disease control)” value (Erysiphe graminis) is reported as 100% and the “Test B rating (disease control)” value (Alternaria solani) is reported as 82%. The “Test A rating (disease control)” value (Botrytis cinerea) was 62%, the “Test C rating (disease control)” value (Septoria nodorum) was 99% and the “Test E1 rating (disease control)” value [1] was 0%. For the same molecule, the “Test E2 rating (disease control)” value [2] was 100%.
With COc1cc(OC)c(Cl)c(-c2c(C)nnc(F)c2-c2c(F)cccc2F)c1 [Compound 36] the “Test D rating (disease control)” value (Septoria tritici) was 100%, the “Test F rating (disease control)” value (Erysiphe graminis) was 100% and the “Test B rating (disease control)” value (Alternaria solani) was 100%. The “Test A rating (disease control)” value (Botrytis cinerea) was 99%, the “Test C rating (disease control)” value (Septoria nodorum) was 60% and the “Test E1 rating (disease control)” value [1] was 100%. The “Test E2 rating (disease control)” value [2] was 100%.
With COc1cc(OC)c(Cl)c(-c2c(C)nnc(C)c2-c2ccc(F)cc2F)c1 [Compound 49] the “Test F rating (disease control)” value (Erysiphe graminis) was 100%, the “Test B rating (disease control)” value (Alternaria solani) was 99% and the “Test C rating (disease control)” value (Septoria nodorum) was 99%. For the same molecule, the “Test E1 rating (disease control)” value [1] was 100% and the “Test E2 rating (disease control)” value [2] was 100%.
COc1cc(OC)cc(-c2c(C)nnc(C)c2-c2ccc(F)cc2Cl)c1 [Compound 52] was tested, and the “Test F rating (disease control)” value (Erysiphe graminis) was 99%, the “Test B rating (disease control)” value (Alternaria solani) was 94% and the “Test A rating (disease control)” value (Botrytis cinerea) was 99%. The “Test C rating (disease control)” value (Septoria nodorum) was 87%, the “Test E1 rating (disease control)” value [1] was 9% and the “Test E2 rating (disease control)” value [2] was 100%.
In the case of COc1cc(OC)c(Cl)c(-c2c(C)nnc(Cl)c2-c2ccc(F)cc2Cl)c1 [Compound 53], the “Test F rating (disease control)” value (Erysiphe graminis) is reported as 100%, the “Test B rating (disease control)” value (Alternaria solani) is reported as 99% and the “Test A rating (disease control)” value (Botrytis cinerea) is reported as 99%. For the same molecule, the “Test C rating (disease control)” value (Septoria nodorum) was 98%, the “Test E1 rating (disease control)” value [1] was 98% and the “Test E2 rating (disease control)” value [2] was 100%.
